In PMC8351955, “Targeting Mycobacterium tuberculosis response to environmental cues for the development of effective antitubercular drugs” (PLoS Biology, 2021):
Read-outs that look alike come from different tables or passages of the source.

Experiments:
[1] = tested on: CDC1551(rv2390c′::GFP) reporter Mtb strain, response to high [Cl−]; experiment: microbe, parasite or virus in culture; assay type: cell-based, Mycobacterium tuberculosis; settings: Mycobacterium tuberculosis, 144 h; for activity at 20 µM: read-out: rv2390c'::GFP validation assay NPA% at 20 µM compound
[2] = tested on: CDC1551(rv1405c′::GFP) reporter Mtb strain; experiment: microbe, parasite or virus in culture; assay type: cell-based, Mycobacterium tuberculosis; settings: Mycobacterium tuberculosis; for activity at 10 µM: read-out: rv1405c'::GFP secondary assay NPA% at 10 µM compound; for activity at 20 µM: read-out: rv1405c'::GFP secondary assay NPA% at 20 µM compound
[3] = pH 6.4, […], DMSO positive control = 100%, read-out: Primary screen rv2390c'::GFP NPA%
[4] = 10 µM, pH 6.4, 250 mM NaCl, 6 days, read-out: rv2390c'::GFP validation assay NPA% at 10 µM compound

SMILES | activity at 10 µM [1, 3] | activity at 10 µM [1, 4] | activity at 20 µM ([1]; pH 6.4, 250 mM NaCl, 6 days) | activity at 10 µM [2] | activity at 20 µM [2]
CCc1nc(C(C#N)C(=O)/C=C/c2ccc(NC(C)=O)cc2)sc1C (stereo not shown) [RU-0204780, CCC1=C(C)SC(=N1)C(C#N)C(=O)\C=C\C1=CC=C(NC(C)=O)C=C1] | 158% | 112 ± 8.5% | 140 ± 12.3% | 127 ± 5.5% | 206 ± 16%
Cc1sc(NS(=O)(=O)c2ccc(F)c(F)c2)c(C(N)=O)c1C [RU-0205217, CC1=C(C)C(C(N)=O)=C(NS(=O)(=O)C2=CC(F)=C(F)C=C2)S1] | 163% | 128 ± 4.7% | 217 ± 16.5% | 305 ± 31.1% | 741 ± 74%
O=C(O)c1cc(-c2ccc(N3CCOCC3)cc2)nn1-c1ccc(F)cc1 [RU-0206470, OC(=O)C1=CC(=NN1C1=CC=C(F)C=C1)C1=CC=C(C=C1)N1CCOCC1] | 157% | 111 ± 10.3% | 165 ± 15.9% | 104 ± 4.5% | 158 ± 23.6%
Cn1ccc(C(=O)Nc2nc(Sc3ccccc3)ns2)cc1=O [RU-0206593, CN1C=CC(=CC1=O)C(=O)NC1=NC(SC2=CC=CC=C2)=NS1] | 42.6% | 39.2 ± 6.9% | 22.7 ± 6.8% | 42 ± 9.6% | 38.3 ± 17.6%
Cn1cccc1C(=O)NS(=O)(=O)c1ccc(C#N)c(Cl)c1 [RU-0207640, CN1C=CC=C1C(=O)NS(=O)(=O)C1=CC(Cl)=C(C=C1)C#N] | 177% | 148 ± 12.2% | 203 ± 22.6% | 175 ± 20% | 357 ± 29.5%
C(=C\c1ccccc1)/Cn1nnc(-c2cccs2)n1 [RU-0207924, C(\C=C\C1=CC=CC=C1)N1N=NC(=N1)C1=CC=CS1] | 152% | 114 ± 1.5% | 137 ± 4% | 97.4 ± 8.8% | 125 ± 16.3%
CCc1nc(C(=O)Nc2nc(C#N)c(C#N)[nH]2)nn1-c1ccccc1Cl [RU-0208082, CCC1=NC(=NN1C1=C(Cl)C=CC=C1)C(=O)NC1=NC(C#N)=C(N1)C#N] | 309% | 258 ± 15.1% | 380 ± 38.2% | 418 ± 56.2% | 677 ± 106%
COC(=O)c1sc(NS(=O)(=O)c2ccc(S(C)(=O)=O)c(F)c2)nc1C [RU-0208648, COC(=O)C1=C(C)N=C(NS(=O)(=O)C2=CC(F)=C(C=C2)S(C)(=O)=O)S1] | 36.7% | 55.2 ± 3.9% | 38.5 ± 6.3% | 45.2 ± 2.1% | 13.7 ± 2.5%
CCNC(=O)CSc1ccc2c3c(cccc13)C(=O)c1ccccc1-2 [RU-0209034, CCNC(=O)CSC1=C2C=CC=C3C(=O)C4=C(C=CC=C4)C(C=C1)=C23] | 182% | 128 ± 15.3% | 199 ± 7.5% | 183 ± 12.7% | 401 ± 7.5%
O=C(O)c1cc2ccccc2cc1NS(=O)(=O)N1CCCCC1 [RU-0210069, OC(=O)C1=C(NS(=O)(=O)N2CCCCC2)C=C2C=CC=CC2=C1] | 44.6% | 66.4 ± 3.4% | 58.6 ± 5.9% | 52.8 ± 1.5% | 31.2 ± 2.6%
COc1ccc(Cl)cc1-c1cc(NC(=O)c2c(C)noc2C)[nH]n1 [RU-0210243, COC1=C(C=C(Cl)C=C1)C1=NNC(NC(=O)C2=C(C)ON=C2C)=C1] | 254% | 211 ± 11.6% | 357 ± 20% | 342.7 ± 3.1% | 737 ± 25.3%
Cc1ccc2cc(S(=O)(=O)NCCn3nc(C)c(Cl)c3C)ccc2c1 [RU-0211306, CC1=NN(CCNS(=O)(=O)C2=CC3=C(C=C2)C=C(C)C=C3)C(C)=C1Cl] | 154% | 122 ± 3.2% | 156 ± 2.1% | 84.4 ± 8.8% | 99.4 ± 9.4%
CCOC(=O)C(C)Sc1nc2c(cnn2-c2ccccc2)c(=O)[nH]1 (stereo not shown) [RU-0212119, CCOC(=O)C(C)SC1=NC2=C(C=NN2C2=CC=CC=C2)C(=O)N1] | 34.7% | 48.1 ± 4.6% | 40.2 ± 4.8% | 33.4 ± 2.2% | 14.5 ± 3.4%
Cc1oc(C(=O)Nc2nnc(C(F)(F)F)[nH]2)cc1S(=O)(=O)N1CCCC1 [RU-0213804, CC1=C(C=C(O1)C(=O)NC1=NN=C(N1)C(F)(F)F)S(=O)(=O)N1CCCC1] | 31.2% | 54.8 ± 1.2% | 42.3 ± 1% | 39.8 ± 7.2% | 21.3 ± 6%
CCCc1ccccc1NC(N)=S [RU-0214166, CCCC1=C(NC(N)=S)C=CC=C1] | 34.1% | 56.8 ± 5.8% | 31.6 ± 12.3% | 61.8 ± 0.5% | 111 ± 15.1%
COCCCC(=O)Nc1cccc(NC2CCCC2)c1 [RU-0215502, COCCCC(=O)NC1=CC(NC2CCCC2)=CC=C1] | 216% | 152 ± 5% | 276 ± 16.4% | 342 ± 33.3% | 804 ± 46.8%

SMILES | activity at 10 µM [1, 3] | activity at 10 µM [1, 4] | activity at 20 µM ([1]; pH 6.4, 250 mM NaCl, 6 days) | activity at 10 µM [2] | activity at 20 µM [2]
CC1(C)CC2CC(C)(CN2CC(O)COc2ccc(F)cc2Cl)C1 (stereo not shown) [RU-0218667, CC12CC(CC(C)(C)C1)N(CC(O)COC1=C(Cl)C=C(F)C=C1)C2] | 154% | 118 ± 1.5% | 173 ± 5.5% | 129 ± 4.5% | 233 ± 4.2%
OC1(c2ccccc2)CCN(Cc2cnc3c(-c4ccccc4)cnn3c2)CC1 [RU-0224846, OC1(CCN(CC2=CN3N=CC(=C3N=C2)C2=CC=CC=C2)CC1)C1=CC=CC=C1] | 153% | 118 ± 10.8% | 159 ± 15.9% | 101 ± 18% | 140 ± 37.5%
CCCC(C)c1nnc(NC(=O)c2nnc3nc(C)cc(C)n23)s1 (stereo not shown) [RU-0225311, CCCC(C)C1=NN=C(NC(=O)C2=NN=C3N=C(C)C=C(C)N23)S1] | 155% | 116 ± 6.7% | 195 ± 6.5% | 110 ± 9.7% | 137 ± 16.9%
CC(C)Cc1cc(C(=O)N2CCOC(CCCc3ccccc3)C2)[nH]n1 (stereo not shown) [RU-0230474, CC(C)CC1=NNC(=C1)C(=O)N1CCOC(CCCC2=CC=CC=C2)C1] | 198% | 118 ± 12.7% | 229 ± 26.9% | 98.4 ± 7.5% | 172 ± 14.2%
CCCn1ncc(C(=O)NC(C)C(=O)Nc2ccc(F)cc2C)c1C (stereo not shown) [RU-0232065, CCCN1N=CC(C(=O)NC(C)C(=O)NC2=CC=C(F)C=C2C)=C1C] | 154% | 119 ± 6.6% | 147 ± 14.2% | 91.3 ± 9.4% | 98.3 ± 13%
NC(=O)c1cc2c(cc1-c1cccc(C(F)(F)F)c1)OCO2 [RU-0234167, NC(=O)C1=CC2=C(OCO2)C=C1C1=CC=CC(=C1)C(F)(F)F] | 343% | 221 ± 6.7% | 383 ± 10.4% | 201 ± 15% | 291 ± 18.7%
CCCc1oncc1C(=O)NC1CC(=O)N(CCc2ccc(F)cc2)C1 (stereo not shown) [RU-0245406, CCCC1=C(C=NO1)C(=O)NC1CN(CCC2=CC=C(F)C=C2)C(=O)C1] | 172% | 126 ± 7.5% | 163 ± 6.6% | 87.7 ± 9% | 114 ± 25.7%
Clc1cccc2ccc(CN3CCn4cncc4C3)nc12 [RU-0247165, ClC1=C2N=C(CN3CCN4C=NC=C4C3)C=CC2=CC=C1] | 219% | 132 ± 7.5% | 317 ± 6.7% | 226 ± 14.7% | 688.7 ± 3.5%
COc1ccc(F)c(-c2cc3c(cc2C(N)=O)OCO3)c1 [RU-0251853, COC1=CC(=C(F)C=C1)C1=CC2=C(OCO2)C=C1C(N)=O] | 182% | 147 ± 6.1% | 276 ± 8% | 147 ± 32% | 296 ± 65.4%
CCNC(=O)c1ccccc1OCc1nc(-c2ccc3c(c2)OCO3)no1 [RU-0257147, CCNC(=O)C1=C(OCC2=NC(=NO2)C2=CC3=C(OCO3)C=C2)C=CC=C1] | 154% | 92.6 ± 5.8% | 127 ± 7.2% | 82 ± 5.5% | –
O=C(c1nccc2ccccc12)N1CCN(CC2CCCC2)CC1 [RU-0257267, O=C(N1CCN(CC2CCCC2)CC1)C1=C2C=CC=CC2=CC=N1] | 199% | 140.3 ± 0.6% | 254 ± 8.7% | 267 ± 23% | 822 ± 58.1%
CC(C)c1cc(C2CCN(C(=O)c3nc(C(C)C)cs3)CC2)[nH]n1 [RU-0259583, CC(C)C1=CSC(=N1)C(=O)N1CCC(CC1)C1=CC(=NN1)C(C)C] | 156% | 103 ± 2.6% | 130 ± 8.6% | 81.6 ± 6.6% | 99.6 ± 21.4%
COc1ccc2c(CN3CCOCC(CN(C)C)C3)cn(C)c2c1 (stereo not shown) [RU-0260647, COC1=CC=C2C(CN3CCOCC(CN(C)C)C3)=CN(C)C2=C1] | 162% | 114 ± 3.2% | 130 ± 7.6% | 112 ± 2.5% | 130 ± 3.6%
O=C(Cc1ccc2c(c1)CCC2)NCc1ccccc1F [RU-0268882, FC1=C(CNC(=O)CC2=CC3=C(CCC3)C=C2)C=CC=C1] | 175% | 130 ± 7% | 176 ± 16.5% | 103 ± 10.5% | 105 ± 20.7%
Cc1ccc(NC(=O)[C@@H]2CCCN2S(=O)(=O)c2ccccc2F)cc1 [RU-0270461, CC1=CC=C(NC(=O)[C@@H]2CCCN2S(=O)(=O)C2=C(F)C=CC=C2)C=C1] | 151% | 116 ± 6.6% | 168 ± 4% | 98.1 ± 2.7% | 159 ± 7.6%
